Laboratory results published in patent US20200253877A1, “GEMCABENE, PHARMACEUTICALLY ACCEPTABLE SALTS THEREOF, COMPOSITIONS THEREOF AND METHODS OF USE THEREFOR” (NEUROBO PHARMACEUTICALS, INC., priority 2018, published 2020).

Test system: hepatic mRNA expression in STAM™ mice
Test: Murine STAM model of NASH-HCC: hepatic gene expression by quantitative RT-PCR
Format: in vivo, mouse
Experimental: A study was performed to evaluate the efficacy of gemcabene calcium salt hydrate Crystal Form 1 having a PSD90 of 52 μm as measured by laser light diffraction, in treating non-alcoholic steatosis hepatitis (NASH) in the murine STAM™ model of NASH-HCC.
Briefly, two-day old neonatal C57BL/6 male mice were administered low-dose streptozotocin (STZ), and were subsequently fed a HFC diet from 4 weeks of age. In this model, the mice typically develop liver steatosis and diabetes, reaching steatohepatitis within 3 weeks, followed by cirrhosis within 8 weeks, and carcinoma within 16 weeks. In the current study, mice were administered daily oral gemcabene calcium salt hydrate Crystal Form 1 starting at week 6 of age and were sacrificed at week 9. […] These STAM™ groups were orally administered from week 6 one of the following: water-vehicle, gemcabene calcium salt hydrate Crystal Form 1 at 30, 100 and 300 mg/kg daily, or telmisartan ([…]®) 10 mg/kg daily. […] All groups were sacrificed at week 9. Vehicle, gemcabene calcium salt hydrate Crystal Form 1, or telmisartan were administered by oral gavage once daily.
Various gene expression markers of liver metabolism were evaluated by Real-Time PCR (RT-PCR) in all mouse groups. Total RNA was extracted from liver samples using RNAiso (Takara Bio, Japan) according to the manufacturer's instructions. […] of RNA was reverse-transcribed using a reaction mixture containing 4.4 mM MgCl2 (F. Hoffmann-La Roche, Switzerland), 40 U RNase inhibitor (Toyobo, Japan), 0.5 mM dNTP (Promega, USA), 6.28 μM random hexamer (Promega), 5×first strand buffer (Promega), 10 mM dithiothreitol (Invitrogen, USA) and 200 U MMLV-RT (Invitrogen) in a final volume of 20 μL. The reaction was carried out for 1 hour at 37° C., followed by 5 minutes at 99° C. Real-time PCR was performed using real-time PCR DICE and SYBR premix Taq (Takara Bio). To calculate the relative mRNA expression level, the expression of each gene was normalized to that of reference gene 36B4 (gene symbol: RplpO). Information of PCR-primer sets is described in Tables 37A-37C. Statistical analyses were performed using the Bonferroni Multiple Comparison Test on GraphPad Prism 6 (GraphPad Software Inc., USA). P values <0.05 were considered statistically significant. Results are expressed as mean±SD.
In order to calculate the relative mRNA expression level, the expression of each gene was normalized to that of the reference gene 36B4 (gene symbol: RplpO). The gene expression levels were measured by quantitative RT-PCR. Results were normalized with values for the vehicle-treated normal group. […] Gemcabene calcium salt hydrate Crystal Form 1 (PSD90=52 μm) modulated the mRNA expression of many hepatic genes that play a significant role in the liver homeostasis and injury.

[1] = gemcabene Form 1 100 mg/kg, telmisartan 10 mg/kg
[2] = vs Vehicle in NASH group, gemcabene Form 1 30 mg/kg
[3] = vs Vehicle in NASH group, gemcabene Form 1 100 and 300 mg/kg
[4] = vs Vehicle in NASH group, gemcabene Form 1 100 and 300 mg/kg, telmisartan 10 mg/kg

Question: CC(C)(CCCCOCCCCC(C)(C)C(=O)O)C(=O)O.[Ca] [6-(5-Carboxy-5-methyl-hexyloxy)-2,2-dimethylhexanoic acid calcium] was tested. Which “LDL receptor gene expression” value (STAM mice) did it give?
Answer: no effect

Question: And the “hepatic ApoC-III mRNA” value (STAM mice)?
Answer: significantly downregulated

Question: And the “MMP-2 mRNA expression (relative, mean±SD)” value (gemcabene Form 1 100 mg/kg)?
Answer: 0.5±0.2

Question: What about the “NF-κB mRNA expression (relative, mean±SD)” value (gemcabene Form 1 100 mg/kg) of the same compound?
Answer: 0.9±0.1

Question: And the “Sulf-2 mRNA expression (relative, mean±SD)” value (gemcabene Form 1 100 mg/kg)?
Answer: 3.8±0.7

Question: What about the “TIMP-1 mRNA expression (relative, mean±SD)” value (gemcabene Form 1 100 mg/kg) of the same compound?
Answer: 3.8±1.6

Question: What about the “TNF-α mRNA expression (relative to vehicle-treated normal group, mean±SD)” value (gemcabene Form 1 100 mg/kg) of the same compound?
Answer: 2.0±0.8

Question: And the “ACC-1 mRNA expression (relative, mean±SD)” value [1]?
Answer: 0.7±0.1

Question: And the “ADH-4 mRNA expression (relative, mean±SD)” value [1]?
Answer: 0.6±0.1

Question: What about the “CCR2 mRNA expression (relative, mean±SD)” value [1] of the same compound?
Answer: 1.6±0.4

Question: And the “CCR5 mRNA expression (relative, mean±SD)” value [1]?
Answer: 1.4±0.3

Question: And the “CRP mRNA levels (relative, mean±SD)” value [1]?
Answer: 0.6±0.1

Question: What about the “MCP-1 mRNA expression (relative, mean±SD)” value [1] of the same compound?
Answer: 1.7±0.7

Question: And the “MIP-1β mRNA levels (relative, mean±SD)” value [1]?
Answer: 2.3±0.9

Question: What about the “ADH-4 mRNA expression (relative, mean±SD)” value (gemcabene Form 1 300 mg/kg) of the same compound?
Answer: 0.5±0.1

Question: And the “CCR2 mRNA expression (relative, mean±SD)” value (gemcabene Form 1 300 mg/kg)?
Answer: 1.7±0.7

Question: What about the “CCR5 mRNA expression (relative, mean±SD)” value (gemcabene Form 1 300 mg/kg) of the same compound?
Answer: 1.3±0.3

Question: And the “CRP mRNA levels (relative, mean±SD)” value (gemcabene Form 1 300 mg/kg)?
Answer: 0.5±0.1

Question: What about the “MCP-1 mRNA expression (relative, mean±SD)” value (gemcabene Form 1 300 mg/kg) of the same compound?
Answer: 1.6±0.7

Question: And the “MIP-1β mRNA levels (relative, mean±SD)” value (gemcabene Form 1 300 mg/kg)?
Answer: 2.8±1.4

Question: And the “MMP-2 mRNA expression (relative, mean±SD)” value (gemcabene Form 1 300 mg/kg)?
Answer: 0.9±0.2

Question: And the “NF-κB mRNA expression (relative, mean±SD)” value (gemcabene Form 1 300 mg/kg)?
Answer: 0.8±0.1

Question: And the “Sulf-2 mRNA expression (relative, mean±SD)” value (gemcabene Form 1 300 mg/kg)?
Answer: 3.3±0.9

Question: And the “TIMP-1 mRNA expression (relative, mean±SD)” value (gemcabene Form 1 300 mg/kg)?
Answer: 4.4±2.1

Question: And the “TNF-α mRNA expression (relative to vehicle-treated normal group, mean±SD)” value (gemcabene Form 1 300 mg/kg)?
Answer: 1.9±0.7

Question: And the “ANGPTL4 mRNA expression level” value [2]?
Answer: no significant difference

Question: And the “IL-6 mRNA expression level” value [2]?
Answer: no significant difference

Question: And the “Fetuin-A mRNA expression level” value (vs Vehicle in NASH group, gemcabene Form 1 100 mg/kg)?
Answer: significant down-regulation

Question: And the “SCD mRNA expression level” value (vs Vehicle in NASH group, gemcabene Form 1 300 mg/kg)?
Answer: significant up-regulation

Question: And the “hepatic LPL mRNA expression levels” value (vs Vehicle in NASH group, gemcabene Form 1 30, 100 and 300 mg/kg, telmisartan 10 mg/kg)?
Answer: significant up-regulations

Question: And the “ANGPTL3 mRNA expression levels” value [3]?
Answer: significant down-regulations

Question: And the “CXCL1/KC mRNA expression levels” value [3]?
Answer: marked down-regulation

Question: What about the “ANGPTL4 mRNA expression levels” value [4] of the same compound?
Answer: significant down-regulations

Question: And the “IL-6 mRNA expression level” value [4]?
Answer: significant down-regulations
